# From publication PMC8897147 (Acta Pharmaceutica Sinica. B, 2021)
# How the values were obtained:
# Details in all cases: COS-7
# [1] = target: T1, CLR/RAMP3 (Homo sapiens, UniProt O60896+Q16602); assay: β-Arrestin2 recruitment
# [2] = target: CLR (Homo sapiens, UniProt Q16602); assay: cAMP accumulation
# [3] = target: T1, CLR/RAMP3; assay: β-Arrestin1 recruitment
# T1 sequence (Q16602 23-461): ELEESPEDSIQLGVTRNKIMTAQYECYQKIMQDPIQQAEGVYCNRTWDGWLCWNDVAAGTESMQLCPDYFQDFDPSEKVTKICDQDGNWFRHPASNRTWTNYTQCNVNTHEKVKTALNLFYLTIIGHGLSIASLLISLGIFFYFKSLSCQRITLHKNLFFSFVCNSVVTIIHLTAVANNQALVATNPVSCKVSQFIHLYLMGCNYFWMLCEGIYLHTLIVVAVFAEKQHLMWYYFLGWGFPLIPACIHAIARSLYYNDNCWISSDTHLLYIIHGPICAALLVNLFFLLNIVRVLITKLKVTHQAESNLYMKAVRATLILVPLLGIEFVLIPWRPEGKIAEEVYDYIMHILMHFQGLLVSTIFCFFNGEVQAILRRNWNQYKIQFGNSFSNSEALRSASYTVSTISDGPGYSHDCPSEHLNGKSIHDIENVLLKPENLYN
# T1 sequence (O60896 24-148): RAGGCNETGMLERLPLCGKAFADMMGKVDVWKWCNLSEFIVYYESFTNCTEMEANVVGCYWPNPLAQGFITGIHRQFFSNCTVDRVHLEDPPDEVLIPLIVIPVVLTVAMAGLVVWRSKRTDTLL
# CLR, sequence (Q16602 23-461): as the sequence (Q16602 23-461) above
smiles,measurement,setting,value
"CC[C@H](C)[C@H](NC(=O)[C@H](CCC(N)=O)NC(=O)[C@H](Cc1c[nH]cn1)NC(=O)[C@H](C)NC(=O)[C@H](CC(C)C)NC(=O)[C@H](CCCCN)NC(=O)[C@H](CCC(N)=O)NC(=O)[C@@H](NC(=O)[C@@H](NC(=O)[C@@H]1CSSC[C@H](NC(=O)CNC(=O)[C@H](Cc2ccccc2)NC(=O)[C@H](CO)NC(=O)[C@H](CCCNC(=N)N)NC(=O)[C@H](CC(C)C)NC(=O)CNC(=O)[C@H](CCC(N)=O)NC(=O)[C@H](Cc2ccccc2)NC(=O)[C@H](CC(N)=O)NC(=O)[C@H](CC(N)=O)NC(=O)[C@H](CCSC)NC(=O)[C@H](CO)NC(=O)[C@H](CCC(N)=O)NC(=O)[C@H](CCCNC(=N)N)NC(=O)[C@@H](N)Cc2ccc(O)cc2)C(=O)N[C@@H](CCCNC(=N)N)C(=O)N[C@@H](Cc2ccccc2)C(=O)NCC(=O)N[C@@H]([C@@H](C)O)C(=O)N1)[C@@H](C)O)C(C)C)C(=O)N[C@@H](Cc1ccc(O)cc1)C(=O)N[C@@H](CCC(N)=O)C(=O)N[C@@H](Cc1ccccc1)C(=O)N[C@H](C(=O)N[C@@H](CC(=O)O)C(=O)N[C@@H](CCCCN)C(=O)N[C@@H](CC(=O)O)C(=O)N[C@@H](CCCCN)C(=O)N[C@@H](CC(=O)O)C(=O)N[C@@H](CC(N)=O)C(=O)N[C@H](C(=O)N[C@@H](C)C(=O)N1CCC[C@H]1C(=O)N[C@@H](CCCNC(=N)N)C(=O)N[C@@H](CO)C(=O)N[C@@H](CCCCN)C(=O)N[C@H](C(=O)N[C@@H](CO)C(=O)N1CCC[C@H]1C(=O)N[C@@H](CCC(N)=O)C(=O)NCC(=O)N[C@@H](Cc1ccc(O)cc1)C(N)=O)[C@@H](C)CC)C(C)C)[C@@H](C)O [Adrenomedullin, adrenomedullin]",Emax,[1],58.4 ± 10.9%
same,Emax,[2],46.3 ± 2.9%
same,Emax,[3],17.9 ± 11.7%
